Assay results taken from US20240325460A1, “MOLECULAR BACTE[…] CONTROL SKIN ENZYMATIC ACTIVITY” (The Regents of the University of California, priority 2017, published 2024).

Experiments:
[1] = system: normal human epidermal keratinocytes (NHEKs); assay: Trypsin-like activity of NHEK conditioned medium (Boc-Val-Pro-Arg-AMC substrate); type: cell-based
Procedure: (§1) Culture of primary human keratinocytes. Neonatal NHEKs (ThermoFisher Scientific, Waltham, MA) were cultured in EpiLife medium (ThermoFisher Scientific) supplemented with 1× EpiLife defined growth supplement (ThermoFisher Scientific), 60 μM CaCl2, and 1× antibiotic-antimycotic (PSA; 100 U/ml penicillin, […] streptomycin, 250 ng/ml amphotericin B; ThermoFisher Scientific) at 37° C., 5% CO2. For experiments, NHEKs were grown to 70% confluency followed by differentiation in high calcium EpiLife medium (2 mM CaCl2) for 48 hours before treatment with bacteria sterile filtered supernatant. […] For bacterial supernatant treatments, differentiated NHEKs were treated with sterile filtered bacterial supernatant at 5% by volume to EpiLife medium. NHEKs were only used for experiments between passages 3 and 5.
Protease activity assays. […] Relative fluorescent intensity was analyzed with a SpectraMAX Gemini EM fluorometer (ThermoFisher Scientific) at RTwith readings every 2 hours for 24 hours. BODIPY FL casein plates were read at ex: 485 nm and em: 530 nm. Elastin-like and MMP substrate plates were read at ex: 485 nm and em: 515 nm. Trypsin-like substrate plates were read at ex: 354 nm and em: 435 nm. […]
Trypsin Activity Analysis. […] Relative fluorescent intensity (ex: 354 nm, em: 435 nm) was analyzed with a SpectraMAX Gemini EM fluorometer (Thermo Fisher Scientific). […]

[2] = system: KLK mRNA expression in NHEKs; assay: KLK mRNA expression in NHEKs by quantitative real-time PCR; type: cell-based, human; details: synthetic peptide, normalized to GAPDH
Procedure: Quantitative real-time PCR. RNA was isolated from NHEKs using Purelink RNA isolation columns (ThermoFisher Scientific) according to the manufacturer's instructions. RNA was quantified using a Nanodrop spectrophotometer (ThermoFisher Scientific), and 500 ng of RNA was reverse-transcribed using the iScript cDNA synthesis kit (Bio-Rad, Irvine, CA). Quantitative real-time PCR reactions were ran on a CFX96 real-time detection system (Bio-Rad) using gene-specific primers and TaqMan probes (ThermoFisher Scientific).
RNA isolation and quantitative real-time PCR. All RNA was isolated using the Purelink RNA isolation kit according to manufacturer's instructions (Thermo Fisher Scientific). For NHEKs, 350 μL RNA lysis buffer (with 1% β-mercaptoethanol) was added directly to cells. For mouse tissue, 0.5 cm^2 full thickness skin was bead beat (2× 30 sec, 2.0 mm zirconia bead) in 750 μL of RNA lysis buffer with 5 minutes on ice in between. Tissue was than centrifuged (10 min, 13,000 RPM, 4° C.), followed by adding 350 μL of clear lysate to 70% EtOH and column based isolation of RNA. […] After RNA isolation, samples were quantified with a Nanodrop (ThermoFisher Scientific), and 500 ng of RNA was reverse-transcribed using the iScript cDNA synthesis kit (Bio-Rad). qPCR reactions were ran on a CFX96 Real-Time Detection System (Bio-Rad). […]

[3] = system: normal human epidermal keratinocytes (NHEKs); assay: RNA-Seq transcriptional profiling of NHEKs; type: cell-based; details: synthetic peptide, 24 h
Procedure: RNA sequencing. RNA was submitted to the University of California, San Diego (UCSD) genomic core facility for library preparation and sequencing. TruSeq mRNA Library Prep Kit (Illumina) was used for library prep followed by high-throughput sequencing on a HiSeq 2500 sequencer (Illumina). Data was analyzed using Partek Flow and Partek Genomics Suite software and gene ontology analysis was performed using the PANTHER classification system (http[://]pantherdb.org).

[4] = system: normal human epidermal keratinocytes (NHEKs); assay: Total protease activity of NHEK conditioned medium (BODIPY FL casein); type: cell-based; details: 800 μg ml applied to 24-hour posttreatment conditioned medium
Procedure: as §1
Protease activity assays. […] Relative fluorescent intensity was analyzed with a SpectraMAX Gemini EM fluorometer (ThermoFisher Scientific) at RTwith readings every 2 hours for 24 hours. BODIPY FL casein plates were read at ex: 485 nm and em: 530 nm. Elastin-like and MMP substrate plates were read at ex: 485 nm and em: 515 nm. Trypsin-like substrate plates were read at ex: 354 nm and em: 435 nm.

Substance | dose and time dependence of trypsin activity stimulation in NHEKs ([1]; synthetic peptide) | trypsin activity in NHEKs treated with synthetic PSM peptide ([1]; synthetic peptide added to NHEKs for up to 24 h) | dose and time dependence of KLK6 mRNA expression in NHEKs [2] | transcriptional profile (RNA-Seq) of NHEKs [3] | effect of serine protease inhibitor on S. aureus-induced total protease activity [4]
f-MEFVAKLFKFFKDLLGKFLGNN [PSMα3] | dose and time dependent manner | strongest PSMα trypsin activity inducers | dose and time dependent manner | broad effect on expression of genes related to the skin barrier | –
aprotinin | – | – | – | – | confirmed that this activity was due to serine proteases
